Data from patent US7138361B2, “Herbicidal heterocycles” (E. I. du Pont de Nemours and Company, priority 2000, dated 2006).

What was measured:
Format in all cases: in vivo
[1] = test system: Surinam grass (Brachiaria decumbens); test: Test B postemergence; conditions: 13 to 15 days
Outline: (§1)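 Seeds were planted and sprayed preemergence with test chemical in a non-phytotoxic solvent mixture containing surfactant; postemergence plants (2 to 18 cm, 1- to 4-leaf stage) received the same formulation. Greenhouse hold 13 to 15 days, then visual rating versus untreated controls on a 0–100 scale (0 no effect, 100 complete control).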

[2] = test system: blackgrass (Alopecurus myosuroides); test: Test B postemergence; conditions: 13 to 15 days
Outline: as §1

[3] = test system: crabgrass (Digitaria sanguinalis); test: Test B postemergence; conditions: 13 to 15 days
Outline: as §1

[4] = test system: barnyardgrass (Echinochloa crus-galli); test: Test B postemergence; conditions: 13 to 15 days
Outline: as §1

wild oat (Avena fatua) = test: Test B postemergence; conditions: 13 to 15 days
Outline: as §1

[5] = test system: pigweed (Amaranthus retroflexus); test: Test B postemergence; conditions: 13 to 15 days
Outline: as §1

[6] = test system: lambsquarters (Chenopodium album); test: Test B postemergence; conditions: 13 to 15 days
Outline: as §1

[7] = test system: velvetleaf (Abutilon theophrasti); test: Test B postemergence; conditions: 13 to 15 days
Outline: as §1

corn (Zea mays) [8] = test: Test B postemergence; conditions: 13 to 15 days
Outline: as §1

[9] = test system: giant foxtail (Setaria faberii); test: Test B postemergence; conditions: 13 to 15 days
Outline: as §1

[10] = test system: wheat (Triticum aestivum); test: Test B postemergence; conditions: 13 to 15 days
Outline: as §1

[11] = test system: cocklebur (Xanthium strumarium); test: Test B postemergence; conditions: 13 to 15 days
Outline: as §1

[12] = test system: morning glory (Ipomoea hederacea); test: Test B postemergence; conditions: 13 to 15 days
Outline: as §1

Nightshade = test: Test C preemergence; conditions: Rate 250 g/ha, visual evaluation after 12 to 14 days
Sunflower = test: Test C preemergence; conditions: Rate 125 g/ha, scale 0 to 100, 0 no effect, 100 complete control
[13] = test system: Surinam grass (Brachiaria decumbens); test: Test B preemergence; conditions: scale 0 to 100, 0 no effect, 100 complete control
Outline: as §1

[14] = test system: crabgrass (Digitaria sanguinalis); test: Test B preemergence; conditions: scale 0 to 100, 0 no effect, 100 complete control
Outline: as §1

[15] = test system: barnyardgrass (Echinochloa crus-galli); test: Test B preemergence; conditions: scale 0 to 100, 0 no effect, 100 complete control
Outline: as §1

[16] = test system: pigweed (Amaranthus retroflexus); test: Test B preemergence; conditions: Preemergence, Rate 500 g/ha; scale 0 to 100, 0 no effect, 100 complete control
Outline: as §1

[17] = test system: lambsquarters (Chenopodium album); test: Test B preemergence; conditions: scale 0 to 100, 0 no effect, 100 complete control
Outline: as §1

rice (Oryza saliva) = test: Test B preemergence; conditions: Preemergence, Rate 500 g/ha; scale 0 to 100, 0 no effect, 100 complete control
Outline: as §1

[18] = test system: velvetleaf (Abutilon theophrasti); test: Test B preemergence; conditions: Preemergence, Rate 500 g/ha; scale 0 to 100, 0 no effect, 100 complete control
Outline: as §1

corn (Zea mays) [19] = test: Test B preemergence; conditions: scale 0 to 100, 0 no effect, 100 complete control
Outline: as §1

[20] = test system: giant foxtail (Setaria faberii); test: Test B preemergence; conditions: scale 0 to 100, 0 no effect, 100 complete control
Outline: as §1

[21] = test system: cocklebur (Xanthium strumarium); test: Test B preemergence; conditions: scale 0 to 100, 0 no effect, 100 complete control
Outline: as §1

[22] = test system: morning glory (Ipomoea hederacea); test: Test B preemergence; conditions: Preemergence, Rate 500 g/ha; scale 0 to 100, 0 no effect, 100 complete control
Outline: as §1

[23] = Rate 125 g/ha, scale 0 (no effect) to 100 (complete control)
[24] = Rate 500 g/ha, scale 0 to 100, 0 is no effect, 100 is complete control

Structure (SMILES): CC(C)c1ccn(C2SCN(c3cccc(OC(F)(F)F)c3)C2=O)n1 (stereo not shown) [Compound 31]
- Plant response rating, Surinam grass [1, 23]: 0
- Plant response rating, Surinam grass [1, 24]: 0
- Plant response rating, Blackgrass [2, 23]: 0
- Plant response rating, Blackgrass [2, 24]: 0
- Plant response rating, Crabgrass [3, 23]: 0
- Plant response rating, Crabgrass [3, 24]: 40
- Plant response rating, Barnyardgrass [4, 23]: 100
- Plant response rating, Barnyardgrass [4, 24]: 100
- Plant response rating, Wild Oat (wild oat (Avena fatua); [23]): 0
- Plant response rating, Wild Oat (wild oat (Avena fatua); [24]): 0
- Plant response rating, Pigweed [5, 23]: 20
- Plant response rating, Pigweed [5, 24]: 60
- Plant response rating, Lambsquarters [6, 23]: 70
- Plant response rating, Lambsquarters [6, 24]: 80
- Plant response rating, Velvetleaf [7, 23]: 0
- Plant response rating, Velvetleaf [7, 24]: 0
- Plant response rating, Corn (corn (Zea mays) [8]; [23]): 0
- Plant response rating, Corn (corn (Zea mays) [8]; [24]): 0
- Plant response rating, Foxtail, Giant [9, 23]: 0
- Plant response rating, Foxtail, Giant [9, 24]: 20
- Plant response rating, Wheat [10, 23]: 0
- Plant response rating, Wheat [10, 24]: 0
- Plant response rating, Cocklebur [11, 23]: 60
- Plant response rating, Cocklebur [11, 24]: 70
- Plant response rating, Morningglory [12, 23]: 10
- Plant response rating, Morningglory [12, 24]: 30
- Plant response rating (0 to 100), Nightshade (Nightshade): 100
- Plant response rating, Sunflower (Sunflower): 30
- Plant response rating, Surinam grass ([13]; Preemergence, Rate 500 g/ha): 70
- Plant response rating, Surinam grass ([13]; preemergence, Rate 125 g/ha): 30
- Plant response rating, Crabgrass ([14]; Preemergence, Rate 500 g/ha): 100
- Plant response rating, Crabgrass ([14]; preemergence, Rate 125 g/ha): 100
- Plant response rating, Barnyardgrass ([15]; Preemergence, Rate 500 g/ha): 100
- Plant response rating, Barnyardgrass ([15]; preemergence, Rate 125 g/ha): 100
- Plant response rating, Pigweed [16]: 100
- Plant response rating, Lambsquarters ([17]; Preemergence, Rate 500 g/ha): 100
- Plant response rating, Lambsquarters ([17]; preemergence, Rate 125 g/ha): 100
- Plant response rating, Rice (rice (Oryza saliva)): 0
- Plant response rating, Velvetleaf [18]: 0
- Plant response rating, Corn (corn (Zea mays) [19]; Preemergence, Rate 500 g/ha): 0
- Plant response rating, Corn (corn (Zea mays) [19]; preemergence, Rate 125 g/ha): 0
- Plant response rating, Foxtail, Giant ([20]; Preemergence, Rate 500 g/ha): 90
- Plant response rating, Foxtail, Giant ([20]; preemergence, Rate 125 g/ha): 30
- Plant response rating, Cocklebur ([21]; Preemergence, Rate 500 g/ha): 0
- Plant response rating, Cocklebur ([21]; preemergence, Rate 125 g/ha): 0
- Plant response rating, Morningglory [22]: 0

Structure (SMILES): CCC(C)c1ccn(C2SCN(c3cccc(OC(F)(F)F)c3)C2=O)n1 (stereo not shown) [Compound 32]
- Plant response rating, Surinam grass [1, 23]: 0
- Plant response rating, Surinam grass [1, 24]: 10
- Plant response rating, Blackgrass [2, 23]: 0
- Plant response rating, Blackgrass [2, 24]: 0
- Plant response rating, Crabgrass [3, 23]: 80
- Plant response rating, Crabgrass [3, 24]: 100
- Plant response rating, Barnyardgrass [4, 23]: 80
- Plant response rating, Barnyardgrass [4, 24]: 90
- Plant response rating, Wild Oat (wild oat (Avena fatua); [23]): 0
- Plant response rating, Wild Oat (wild oat (Avena fatua); [24]): 0
- Plant response rating, Pigweed [5, 23]: 40
- Plant response rating, Pigweed [5, 24]: 60
- Plant response rating, Lambsquarters [6, 23]: 80
- Plant response rating, Lambsquarters [6, 24]: 90
- Plant response rating, Velvetleaf [7, 23]: 0
- Plant response rating, Velvetleaf [7, 24]: 0
- Plant response rating, Corn (corn (Zea mays) [8]; [23]): 0
- Plant response rating, Corn (corn (Zea mays) [8]; [24]): 0
- Plant response rating, Foxtail, Giant [9, 23]: 0
- Plant response rating, Foxtail, Giant [9, 24]: 60
- Plant response rating, Wheat [10, 23]: 0
- Plant response rating, Wheat [10, 24]: 0
- Plant response rating, Cocklebur [11, 23]: 60
- Plant response rating, Cocklebur [11, 24]: 60
- Plant response rating, Morningglory [12, 23]: 20
- Plant response rating, Morningglory [12, 24]: 20
- Plant response rating (0 to 100), Nightshade (Nightshade): 90
- Plant response rating, Sunflower (Sunflower): 0
- Plant response rating, Surinam grass ([13]; Preemergence, Rate 500 g/ha): 60
- Plant response rating, Surinam grass ([13]; preemergence, Rate 125 g/ha): 40
- Plant response rating, Crabgrass ([14]; Preemergence, Rate 500 g/ha): 100
- Plant response rating, Crabgrass ([14]; preemergence, Rate 125 g/ha): 60
- Plant response rating, Barnyardgrass ([15]; Preemergence, Rate 500 g/ha): 100
- Plant response rating, Barnyardgrass ([15]; preemergence, Rate 125 g/ha): 80
- Plant response rating, Pigweed [16]: 100
- Plant response rating, Lambsquarters ([17]; Preemergence, Rate 500 g/ha): 100
- Plant response rating, Lambsquarters ([17]; preemergence, Rate 125 g/ha): 100
- Plant response rating, Rice (rice (Oryza saliva)): 0
- Plant response rating, Velvetleaf [18]: 0
- Plant response rating, Corn (corn (Zea mays) [19]; Preemergence, Rate 500 g/ha): 0
- Plant response rating, Corn (corn (Zea mays) [19]; preemergence, Rate 125 g/ha): 0
- Plant response rating, Foxtail, Giant ([20]; Preemergence, Rate 500 g/ha): 100
- Plant response rating, Foxtail, Giant ([20]; preemergence, Rate 125 g/ha): 70
- Plant response rating, Cocklebur ([21]; Preemergence, Rate 500 g/ha): 0
- Plant response rating, Morningglory [22]: 0
